Assay results from patent publication US20080255052A1, “Immunologic regulation by theta defensins” (priority 2004, published 2008).
“Also recorded” adds a separate entry of the source. Bridges are numbered along the chain shown (N, C = ends).

Assays:
Human PBMCs = assay: TNFα release from LPS-stimulated PBMCs; format: cell-based; settings: LPS 10 μg/ml, RTD-1 0.1-10 μg/ml, supernatants after 3 days
Description: Human PBMCs were prepared by the dextran sedimentation method and resuspended in Iscove's Modified Dulbecco's Medium containing 10% fetal bovine serum. […] Under conditions shown in A-C, aliquots containing 0.5−1×10^6 PBMCs were incubated with 10 μg/ml lipopolysaccharide (LPS) for 2 hours at 37° C., 5% CO2, then treated with RTD-1 (A: 10 μg/ml, B: 1 μg/ml, C, 0.1 μg/ml). Under conditions shown in D-E, a mixture of LPS (10 μg/ml) and RTD-1 (D: 10 μg/ml, E: 1 μg/ml, F: 0.1 μg/ml) were incubated for 2 hours at 37° C. then added to PBMC. Under conditions shown in G-L, control incubations were performed in which PBMCs were incubated with either 10 μg/ml LPS (G), 1 μg/ml phorbol 12-myristate 13-acetate (PMA) (H), varying concentrations of RTD-1 (1:10 μg/ml, J:1 μg/ml, K:0.1 μg/ml), or in media (L). Supernatants from these incubations were harvested after 3 days and soluble TNF was measured using Human TNF ELISA Kit II (BD Biosciences, San Diego). Results were obtained from duplicate incubations.

[1] = tested on: Escherichia coli ML35, Staphylococcus aureus 502A, Candida albicans, Cryptococcus neoformans; assay: Microbicidal and agar diffusion assays in low salt diluents; format: cell-based, bacteria and fungi; settings: low salt conditions, absence of physiologic salt
Description: The antimicrobial activities of various theta defensin compounds were measured using a diffusion assay against bacteria (Staphylococcus aureus 502a and Escherichia coli ML35) and fungi (Candida albicans 16820 and Cryptococcus neoformans 271A). The antimicrobial activities were determined in an agar diffusion assay as described previously (Osapay et al., J. Biol. Chem. 275:12017-12022 (2000)). Briefly, 10-μl wells were bored in a 9-cm^2 plate of agarose, buffered with 10 mM 1,4-piperazine-bis(ethanesulfonic acid) (PIPES), pH 7.4, containing 5 mM glucose, and seeded with 1×10^6 mid-log phase cells. Five-μl aliquots of each peptide, dissolved in 0.01% acetic acid (HOAc) at 10-300 μg/ml, were added to each well. After incubation at 37° C. for 2 h, the seeded agar was overlaid with molten agarose containing 6% trypticase soy broth (for bacteria) or Sabouraud dextrose broth (for fungi). Plates were incubated at 37° C. for 18-24 h, and antimicrobial activity was determined by measuring the diameter of clearing around each well.
(§1) The microbicidal activities of various theta defensin peptides were determined by incubating 2×10^6 CFU/ml with peptides (0-100 μg/ml) in 50 μl of low salt diluents: 10 mM PIPES buffer containing 5 mM glucose, pH 7.4, 10 mM Tris-HCl, pH 7.4, or 10 mM sodium phosphate, pH 7.4, or the same diluents supplemented with 25 to 154 mM NaCl. After 2 h incubation at 37° C., the cell suspensions were diluted 1:50 with 10 mM sodium phosphate buffer, pH 7.4, and exponentially spread with an Autoplate 400 (Spiral Biotech, MD) onto trypticase soy agar (bacteria) or Sabouraud dextrose agar (fungi). After incubation at 37° C. for 18-48 h, colonies were counted and cell survival was expressed as CFU/ml.
FIGS. 2-4 show the results of microbicidal assays performed with various theta defensins and protegrin. Cells were incubated for 2 hours at 37° C. in 10 mM PIPES, pH 7.4, and 5 mM glucose, as described above.
FIGS. 5-8 show antimicrobial activities of various theta defensins as measured using the diffusion assay. […]

[2] = tested on: S. aureus and E. coli ML35; assay: Antimicrobial activities in physiological salts and serum; format: cell-based; settings: NaCl, CaCl2, MgCl2; 10% human serum
Description: as §1
(§2) Staphylocidal activities of theta defensins and protegrin were assayed in various buffers and salt concentrations. Log-phase bacteria were incubated for 2 h at 37° C. with increasing concentrations of the peptides (FIG. 9). Cells were incubated with increasing concentrations of RTD-1 (filled circles), RTD-2 (filled triangles), RTD-3 (filled squares), and PG-1 (filled diamonds) in 10 mM PIPES (FIG. 9A), 10 mM Tris-Cl (FIG. 9B), or 10 mM sodium phosphate (FIG. 9C), at pH 7.4, containing 154 mM NaCl.
The bactericidal activities of theta defensins against E. coli in various physiological salt concentrations were also tested. […] Killing of E. coli ML35 was measured by incubating increasing concentrations of RTD-1 (filled circles), RTD-2 (filled triangles), RTD-3 (filled squares), and PG-1 (filled diamonds) with log-phase E. coli ML35 in 10 mM PIPES, pH 7.4, with CaCl2 (1.2 mM) (FIG. 10A), MgCl2 (0.8 mM) (FIG. 10B), or in control incubations where the divalent salts were omitted (FIG. 10C).
The activities of theta defensins in the presence of serum were also analyzed. […] Dose-dependent bactericidal activities of RTD-1 (filled circles), RTD-2 (filled triangles), RTD-3 (filled squares), and PG-1 (filled diamonds) against bacteria were determined in 10 mM PIPES, pH 7.4, containing 10% normal (for S. aureus) or heat-inactivated (for E. coli) human serum.

LPS-stimulated cells = settings: cited from earlier work
[3] = tested on: various theta defensin peptides
Staphylococcus aureus = assay: Staphylocidal activity in buffers containing physiologic NaCl; format: cell-based; settings: 154 mM NaCl, pH 7.4, 2 h at 37° C.
Description: as §1, §2

[4] = tested on: primary R5 strain of HIV-1; assay: Anti-HIV activity in PHA-stimulated PBMCs (p24 ELISA); format: cell-based; settings: day 7 of infection
Description: Phytohaemagglutinin (PHA)-stimulated peripheral blood mononuclear cells (PBMCs), pre-incubated for 3 hours with serial dilutions of defensins, were mixed with 1000 TCID50 (50% infectivity of susceptible cells in tissue culture) of a primary R5 strain of HIV-1. Two hours later, the cells were washed, and fresh medium containing defensin and 20 U/ml of IL-2 was added. Five days after infection, 50% of the medium was removed and replaced with fresh medium containing defensin and IL-2. On day 7 of infection, the levels of HIV protein p24 in supernatant fluid were measured by ELISA. […] The active β-defensin was human β-defensin-3.

Row | Substance | antimicrobial activity in vitro [1] | activity in the presence of physiological salts and serum [2] | antimicrobial activity in the presence of salt compared to RTD-1 (Staphylococcus aureus) | also measured
1 | Gly-Phe-Cys-Arg-Cys-Leu-Cys-Arg-Arg-Gly-Val-Cys-Arg-Cys-Ile-Cys-Thr-Arg (cyclo(GFCRCLCRRGVCRCICTR); disulfide 7-12, 5-14, 3-16) [RTD-1, Rhesus theta defensin, macrocyclic 18-amino acid antimicrobial peptide, heterodimer of RTD1a and RTD1b nonapeptides] | nearly indistinguishable | active | – | extracellular release of TNFα (Human PBMCs): modulates extracellular release of TNF-a; levels of pro-inflammatory cytokines (TNF-α, IL-1β) (LPS-stimulated cells): Reduction
2 | Purified β-galactosidase | – | – | – | β-Galactosidase activity measured as the rate of o-nitrophenyl-beta-D-galactopyranoside (ONPG) hydrolysis, compared to that obtained in the absence of peptide [3]: various theta defensins inhibited β-galactosidase enzymatic activity
3 | RTD-2: naturally occurring theta defensin, homodimer of nine-residue sequences (SEQ ID NO:4, FIG. 1) (cyclo(GFCRCICTRGFCRCICTR); not fully specified (bridges); also: homodimer of nine-residue sequences, cyclic; listed as Macaca mulatta) | nearly indistinguishable | active | more potent antimicrobial activity; also recorded: higher antimicrobial activity than RTD-1 | –
4 | RTD-3: naturally occurring theta defensin, homodimer of nine-residue sequences (SEQ ID NO:6, FIG. 1) (cyclo(GVCRCLCRRGVCRCLCRR); not fully specified (bridges); also: homodimer of nine-residue sequences, cyclic; listed as Macaca mulatta) | nearly indistinguishable | active | more potent antimicrobial activity; also recorded: higher antimicrobial activity than RTD-1 | –
5 | human β-defensin-3: human β-defensin-3, the active β-defensin in the anti-HIV assay (GIINTLQKYYCRVRGGRCAVLSCLPKEEQIGKCSTRGRKCCRRKK; Beta-defensin 103; UniProt P81534 23-67, looked up) | – | – | – | anti-HIV activity (HIV protein p24 in supernatant) [4]: active
